The nature of series [1]: method code SF-HPLC, from Xiong, Ð. (2009). Apparent partiton coefficient of hawthorn leaf flavonoids in phospholipids complex. Chinese Traditional Patent Medicine, 31(7)1075-1078.
Experiment in series [2]: not given
The source holds these as a separate data set.

A short description of series [3]: method code SF, from DOI: 10.1016/s0928-0987(97)10019-7. The conditions noted are these: pH 7.4.
Series [4] is described as follows: method code SF-HPLC, from Huang, H.; YU, D.; Wang, C.; Shi, S.; Shi, J. (2014). Determination of apparent oil/water partition coefficient of spinosin. Yaowu fenxi zazhi, 34(3)497-499. As to conditions: pH 7.4.
A short description of series [5]: method code SF, from DOI: 10.1016/0378-5173(85)90077-8.
Series [6] in a line: method code SF-AS, from DOI: 10.1021/ja00198a050.
Experiment in series [7]: not given
The source holds these as a separate data set.

Series [8] can be described thus: method code SF-HPLC, from PMID: 8932441. As to conditions: pH 7.4.
Experiment in series [9]: not given
This is another data set of the same source.

Experiment in series [10]: not given
The source holds these as a separate data set.

The nature of series [11]: method code SF-GLC, from DOI: 10.1021/je990149u.
Experiment in series [12]: not given
The source holds these as a separate data set.

A short description of series [13]: method code SF-AS, from PMID: 7170648. The conditions noted are these: pH 7.4.
Experiment in series [14]: not given
The source holds these as a separate data set.

Experiment in series [15]: not given
The source holds these as a separate data set.

Series [16] is described as follows: method code SF-RC, from PMID: 9639294. As to conditions: pH 7.5.
A short description of series [17]: method code SF-HPLC, from DOI: 10.1023/a:1016359301852, PMID: 24271710.
Series [18] in a line: method code SF-HPLC, from PMID: 3219139. The conditions noted are these: pH 9.0.
Series [19] in a line: method code SF-AS, from DOI: 10.1562/0031-8655(2002)076<0127:dlbcop>2.0.co;2, PMID: 12194207. As to conditions: pH 7.3.
Series [20] is described as follows: method code SF-EIA, from DOI: 10.1016/s0022-2275(20)42614-8, PMID: 2280184. The conditions noted are these: pH 1.0.
Series [21] is described as follows: method code SF-RC, from DOI: 10.1016/0378-5173(86)90124-9.
Experiment in series [22]: not given
The source holds these as a separate data set.

The nature of series [23]: method code SF-AS, from DOI: 10.1002/qua.560100722. As to conditions: pH 7.8.
Series [24] in a line: method code SF-AS, from PMID: 4762845. The conditions noted are these: pH 1.0.
Experiment in series [25]: not given
This is another data set of the same source.

Experiment in series [26]: not given
The source holds these as a separate data set.

A short description of series [27]: method code SF, from Huang, J.; Leng, X. (1993). Interaction of rat hepatocyte and cytochrome P 450 with pyrethroids in vitro. Dong Wu Xue Bao, 39(4)418-423.
Series [28] can be described thus: method code SF-AS, from DOI: 10.1248/cpb.25.1350, PMID: 890858. The conditions noted are these: pH 6.5.
Series [29] is described as follows: method code SF-AS, from DOI: 10.1021/jm00371a014, PMID: 6716401. As to conditions: pH 7.4.
Experiment in series [30]: not given
This is another data set of the same source.

Experiment in series [31]: not given
The source holds these as a separate data set.

Series [32] is described as follows: method code SF-RC, from DOI: 10.1016/j.nucmedbio.2014.03.016, PMID: 24776092. As to conditions: pH 7.4.
Series [33] can be described thus: method code SF-HPLC, from DOI: 10.1211/0022357001774101, PMID: 10813545.
Experiment in series [34]: not given
The source holds these as a separate data set.

Series [35] is described as follows: method code SF-RC, from DOI: 10.1016/s0022-2275(20)42614-8, PMID: 2280184. As to conditions: pH 1.0.

A word on the logP: it is the decadic logarithm of the partition coefficient of the neutral form, usually between octanol and water. A word on the logD: it is lipophilicity at a set pH, counting ionised and neutral species.

`C[C@@H]1O[C@@H](OC[C@H]2O[C@@H](Oc3c(-c4ccc(O)c(O)c4)oc4cc(O)cc(O)c4c3=O)[C@H](O)[C@@H](O)[C@@H]2O)[C@H](O)[C@H](O)[C@H]1O`: in [1], the logP was -0.09.

`COc1ccc(C=Cc2ccc(C=Cc3ccc(OC)c(C(F)(F)F)c3)c(O)c2)cc1C(F)(F)F` showed a logP of 7.17. `CCCN(CCCCN1C(=O)CC2(CCCC2)CC1=O)C1COc2cccc(OC)c2C1` (stereo unspecified) gave a logP in [2] of 4.8.

In [3], `CC(C)(C)S(=O)(=O)C[C@@H](Cc1ccccc1)C(=O)N[C@@H](Cc1cnc[nH]1)C(=O)N[C@@H](CC1CCCCC1)[C@@H](O)[C@@H](O)C1CC1` returned a logD of 2.75. Regarding `COc1cc2oc(-c3ccc(O)cc3)cc(=O)c2c(O)c1[C@@H]1O[C@H](CO)[C@@H](O)[C@H](O)[C@H]1O[C@@H]1O[C@H](CO)[C@@H](O)[C@H](O)[C@H]1O`, the logD in series [4] stood at 0.56. The compound `CCCCCCCC(=O)OCC(=O)[C@@]1(O)CC[C@H]2[C@@H]3CCC4=CC(=O)CC[C@]4(C)[C@H]3C(=O)C[C@@]21C` came in with a logP in series [5] of 4.22.

Consider `CC(C)(C)c1ccc2c(c1)OCCOCCOCCOCCOCCOCCOCCOCCO2`, for which, in [6], the logP amounted to 1.89. In [7], `COc1ccc(CCN(C)CCCC(C#N)(c2cc(OC)c(OC)c(OC)c2)C(C)C)cc1OC` (stereo unspecified) registered a logP of 3.71. `CCCCOC(=O)NS(=O)(=O)c1ccccc1-c1ccc(Cn2c(CCC)nc(CC)c2C(C)=O)c(F)c1` registered a logD in series [8] of 1.72.

For the compound `CCCCCCCCCCCCC(Br)C(=O)OCC1OC(n2cc(C)c(=O)[nH]c2=O)CC1N=[N+]=[N-]` (stereo unspecified), the logP in series [9] worked out at 8.14.

In the case of `CC1(C)CC[C@]2(C(=O)O)CC[C@]3(C)C(=CC[C@@H]4[C@@]5(C)CC[C@H](O)C(C)(C)[C@@H]5CC[C@]43C)[C@@H]2C1`, the logP in [10] was found to be 3.63.

For the compound `CCCCCCCCCCOC(=O)c1ccccc1C(=O)OCCCCCCCCCC`, the logP in [11] was determined as 9.05.

For the compound `CO[C@@H](CC[C@H](C)[C@H]1O[C@@]23CC(OC(=O)C[C@H]([C@@H](C)O)OC(=O)C[C@](O)(O2)[C@H](C)CC3(C)C)[C@@H]1C)c1cc(O)ccc1Br`, the log partition coefficient (logP) in series [12] came out at 5.4. Consider `CCN(CC)C(=O)N1CCN(Cc2cc(Nc3ccnc4cc(Cl)ccc34)ccc2O)CC1`, for which the logD in [13] came out at 3.95.

As to `CCCCC(CC)COC(=O)c1ccccc1C(=O)OCC(CC)CCCC` (stereo unspecified), the logP in series [14] turned out to be 7.3.

For `CCCN(CCC)C(=O)Cc1c(-c2ccc(OC(=O)NCCc3ccc(O)c(O)c3)cc2)nc2ccc(Cl)cn12`, the logP in series [15] was found to be 4.3.

For the compound `CCOC(=O)C1=C(COCCOCCNC(=O)C(C)(C)C)NC(C)=C(C(=O)OC)C1c1cccc(Cl)c1Cl` (stereo unspecified), the logD in series [16] is 2.12. In [17], `C#CC1(OC(=O)c2ccn(C)c2)CCC2C3CCC4=CC(=O)CCC4C3CCC21C` (stereo unspecified) showed a logP of 4.44.

In series [18], `COC(=O)C1=C(C)NC(C)=C(C(=O)O[C@@H]2CCCN(Cc3ccccc3)C2)[C@@H]1c1cccc([N+](=O)[O-])c1` (relative stereo) gave a logD of 3.47. In series [19], `COC(=O)CCC1=C(C)c2cc3cc(C)c(cc4cc(C)c(cc5nc(cc1n2)C(CCC(=O)OC)=C5C)[nH]4)[nH]3` showed a logD of 3.95. Regarding `C[C@H](CCC(=O)O)[C@H]1CC[C@H]2[C@@H]3C[C@H](O)[C@@H]4C[C@H](O)CC[C@]4(C)[C@H]3CC[C@]12C`, the logD in series [20] turned out to be 3.08. Regarding `CCCCC[C@H](O)/C=C/[C@@H]1[C@@H](C/C=C\CCCC(=O)OCc2ccccc2)[C@@H](O)C[C@H]1O`, in series [21], the logP was 4.11. In series [22], `CC(=O)N(O)CCCCCNC(=O)CCC(=O)N(O)CCCCCNC(=O)CCC(=O)N(O)CCCCCN` had a logP of -1.52. Compound `COc1cccc2c1C(=O)c1c(O)c3c(c(O)c1C2=O)CC(O)(C(C)=O)CC3OC1CC(NC(=O)CNC(=O)CN(C)C)C(O)C(C)O1` (stereo unspecified) displayed a logD in [23] of 1.12. Regarding `O=C(CCOCCOCCOCCOCCC(=O)Nc1c(I)cc(I)c(C(=O)O)c1I)Nc1c(I)cc(I)c(C(=O)O)c1I`, in series [24], the logD was 1.42. `O=C(NNCc1ccncc1)C1CCCN1C(=O)C(Cc1ccc(Cl)c(Cl)c1)NS(=O)(=O)Cc1ccccc1` (stereo unspecified) displayed a logP in series [25] of 2.57. On to `CC(C)C(NC(=O)CN1C(=O)C(NC(=O)NCc2cc[n+]([O-])cc2)CC=C1c1ccccc1)C(=O)C(F)(F)F` (stereo unspecified), for which the logP in [26] is 1.13. On to `CC(C)C(C(=O)OC(C#N)c1cccc(Oc2ccccc2)c1)c1ccc(OC(F)F)cc1` (stereo unspecified), for which, in [27], the logP is 5.55.

`CCC(=O)OCc1c(CSSCc2cnc(C)c(OC(=O)CC)c2COC(=O)CC)cnc(C)c1OC(=O)CC`: the logD in [28] came to 2.68. As for `COc1cccc2c1C(=N)c1c(O)c3c(c(O)c1C2=O)C[C@](O)(C(=O)CO)C[C@@H]3O[C@H]1C[C@@H](N2CCOC[C@@H]2C#N)[C@@H](O)[C@@H](C)O1`, the log distribution coefficient (logD) in series [29] turned out to be 1.97.

In turn, `COc1cccc2c1C(=O)c1c(O)c3c(c(O)c1C2=O)C[C@@](O)(C(=O)CO)C[C@@H]3O[C@H]1C[C@H](N)[C@H](I)[C@H](C)O1` yielded a logP in series [30] of 1.53.

The compound `COC(=O)CC(O)CC(O)C=Cn1c(C(C)C)nc(-c2ccncc2)c1-c1ccc(F)cc1` (stereo unspecified) registered a logP in [31] of 0.9. Turning to `C[C@H](CCC(=O)NCc1cn(CCF)nn1)[C@H]1CC[C@H]2[C@@H]3[C@H](O)C[C@@H]4C[C@H](O)CC[C@]4(C)[C@H]3CC[C@]12C`, the logD in series [32] was 1.61. Consider `C[C@]12CC[C@H]3[C@@H](CCC4=CC(=O)CC[C@@]43C)[C@@H]1CC[C@@H]2OC(=O)CCC1CCCC1`, for which the logP in [33] was found to be 4.89. Regarding `N#CC(CCN1CCC(C(N)=O)(N2CCCCC2)CC1)(c1ccccc1)c1ccccc1`, the logP in series [34] worked out at 3.91. In the case of `CC(CCC(=O)NCC(=O)O)C1CCC2C3CCC4CC(O)CCC4(C)C3CC(O)C12C` (stereo in doubt), in series [35], the logD was determined as 2.25.
